Literature values, collected in publication PMC7579232 (Current Clinical Pharmacology, 2020).

Experiments:
[1] = rats
[2] = rabbits

NC(=O)N1c2ccccc2C=Cc2ccccc21 [carbamazepine]
Effect of pomegranate juice on elimination half-life [1]: does not affect
Increase of AUC by pomegranate juice ([1]; oral carbamazepine with pomegranate juice): approximately 1.5 fold

Cc1ncc2n1-c1ccc(Cl)cc1C(c1ccccc1F)=NC2 [midazolam]
Effect of pomegranate juice on Cmax and AUC (oral midazolam, healthy volunteers): did not affect

CCOC(=O)C1=C(C)NC(C)=C(C(=O)OC)C1c1cccc([N+](=O)[O-])c1 (stereo not drawn) [nitrendipine]
Increase of area under the concentration-time curve by pomegranate juice [2]: 2.03 fold
Increase of peak plasma concentration by pomegranate juice [2]: 2 fold

C=CC[C@@H]1/C=C(\C)C[C@H](C)C[C@H](OC)[C@H]2O[C@@](O)(C(=O)C(=O)N3CCCC[C@H]3C(=O)O[C@H](/C(C)=C/[C@@H]3CC[C@@H](O)[C@H](OC)C3)[C@H](C)[C@@H](O)CC1=O)[C@H](C)C[C@@H]2OC [tacrolimus]
Effect of co-administered pomegranate dietary products on drug concentration (a heart transplant patient): increased
